Drawing on patent US20240158393A1, “PYRIDONE COMPOUNDS AND METHODS OF USE” (Exelixis, Inc., priority 2021, published 2024), this text covers IC50 for 23 molecules.

The target of one test is T1, Human Met (Homo sapiens, UniProt P08581).
T1 construct: Human MET (residues 956-1390)
Briefly: Human Met kinase assay (33P radiometric / HTRF KinEase). It is filed as biochemical. To be noted: protocols of Examples D-1 and/or D-2; read-out: c-Met IC50. The essentials: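 Two formats gave IC50s by curve fitting. HTRF KinEase used MET residues 956-1390 with 1 μM biotin-peptide and 3.0 μM ATP (Km) for 40 min at room temperature, ten doses in 3% DMSO, 665/620 nm read. The 33P transfer assay used mutant Met R974-S1390 A1209G/V1290L (3.4 nM), 10 μM ATP, 250 μM peptide, pH 7.0, 40 min, nine doses from 1 μM.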
A general note: In TR-FRET formats the signal depends on donor and acceptor labels being close together.

The next test concerns the target T2, Human KDR (Homo sapiens, UniProt P35968).
T2 construct: Human KDR (residues K790-V1356, 55 nM); purchased Eurofins Pharma Discovery Services UK Limited (KinaseProfiler, B-1) and/or CarnaBio (B-2)
In words: Human KDR kinase assay (33P radiometric / HTRF KinEase). In kind it is biochemical. To be noted: protocols of Examples B-1 and/or B-2. The essentials:
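Radiometric: KDR K790-V1356 (55 nM), MOPS pH 7.0, myelin basic protein, 10 μM [γ-33P]ATP, 40 min at room temperature, filter-bound 33P counted; nine half-log doses, top 1 μM. HTRF: KDR 790-1356, 1 μM biotinylated peptide, ATP at Km (4.0 μM), 40 min, 10 doses. IC50 from logistic fits.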

The structures appear in SMILES notation.

T2 sequence (P35968 790-1356): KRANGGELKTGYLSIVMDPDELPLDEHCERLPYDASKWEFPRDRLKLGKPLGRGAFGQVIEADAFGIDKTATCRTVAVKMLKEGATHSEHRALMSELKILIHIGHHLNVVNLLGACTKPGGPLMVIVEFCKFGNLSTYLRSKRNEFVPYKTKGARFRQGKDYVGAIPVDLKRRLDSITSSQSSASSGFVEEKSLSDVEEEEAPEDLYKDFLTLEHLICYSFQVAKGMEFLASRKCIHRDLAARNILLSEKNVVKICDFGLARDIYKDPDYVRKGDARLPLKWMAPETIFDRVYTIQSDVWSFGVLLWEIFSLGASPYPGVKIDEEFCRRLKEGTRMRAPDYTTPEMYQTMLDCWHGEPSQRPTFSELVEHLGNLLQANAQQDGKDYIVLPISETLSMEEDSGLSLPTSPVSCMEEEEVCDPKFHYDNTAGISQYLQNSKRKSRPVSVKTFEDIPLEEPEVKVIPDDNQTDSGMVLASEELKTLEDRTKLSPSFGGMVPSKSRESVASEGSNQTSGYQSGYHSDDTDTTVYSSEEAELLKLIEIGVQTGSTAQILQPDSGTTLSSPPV
T1 sequence (P08581 974-1390 limits assumed): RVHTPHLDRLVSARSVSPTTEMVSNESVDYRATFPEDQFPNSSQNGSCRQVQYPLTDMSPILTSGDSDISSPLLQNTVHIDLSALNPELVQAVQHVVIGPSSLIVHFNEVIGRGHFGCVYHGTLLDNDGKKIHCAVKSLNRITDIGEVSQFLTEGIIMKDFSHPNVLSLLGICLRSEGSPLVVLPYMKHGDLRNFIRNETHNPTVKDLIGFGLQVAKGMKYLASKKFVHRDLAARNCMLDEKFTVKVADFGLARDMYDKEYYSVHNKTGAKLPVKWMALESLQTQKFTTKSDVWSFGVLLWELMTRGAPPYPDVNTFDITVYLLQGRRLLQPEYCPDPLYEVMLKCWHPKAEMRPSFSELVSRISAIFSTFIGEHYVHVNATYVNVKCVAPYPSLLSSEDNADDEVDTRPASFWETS

By IC50 is commonly meant the concentration at which inhibition is half-maximal. On to `COc1cc2nccc(Oc3ccc(NC(=O)c4c(C)ccn(C(C)C)c4=O)cc3)c2nc1OC` [Compound 39, N-[4-[(6,7-Dimethoxy-1,5-naphthyridin-4-yl)oxy]phenyl]-4-methyl-2-oxo-1-propan-2-ylpyridine-3-carboxamide], for which the IC50 on Human Met and against Human KDR was over 300 nM throughout.
`COCCOc1cc2nccc(Oc3ccc(NC(=O)c4cnc(C)c(/C=C/C(C)(C)C)c4O)cc3F)c2nc1OC` [Compound 40, 5-[(E)-3,3-Dimethylbut-1-enyl]-N-[3-fluoro-4-[[6-methoxy-7-(2-methoxyethoxy)-1,5-naphthyridin-4-yl]oxy]phenyl]-4-hydroxy-6-methylpyridine-3-carboxamide]: the IC50 at Human Met and on Human KDR was at most 100 nM throughout.
As to `COCCOc1cc2nccc(Oc3ccc(NC(=O)c4c(C)nc(C)c(C5=CCCC5)c4O)cc3F)c2nc1OC` [Compound 41, 5-(Cyclopenten-1-yl)-N-[3-fluoro-4-[[6-methoxy-7-(2-methoxyethoxy)-1,5-naphthyridin-4-yl]oxy]phenyl]-4-hydroxy-2,6-dimethylpyridine-3-carboxamide], the IC50 at Human Met and at Human KDR was at most 100 nM throughout.
Take `COCCOc1cc2nccc(Oc3ccc(NC(=O)c4c(C)n(C)c(C)c(C5=CCCC5)c4=O)cc3F)c2nc1OC` [Compound 42, 5-(Cyclopenten-1-yl)-N-[3-fluoro-4-[[6-methoxy-7-(2-methoxyethoxy)-1,5-naphthyridin-4-yl]oxy]phenyl]-1,2,6-trimethyl-4-oxopyridine-3-carboxamide]: the IC50 on Human Met and against Human KDR was at most 100 nM in each case.
For `COCCOc1cc2nccc(Oc3ccc(NC(=O)c4c(C)nc(C)c(C5=CCOCC5)c4O)cc3F)c2nc1OC` [Compound 43, 5-(3,6-Dihydro-2H-pyran-4-yl)-N-[3-fluoro-4-[[6-methoxy-7-(2-methoxyethoxy)-1,5-naphthyridin-4-yl]oxy]phenyl]-4-hydroxy-2,6-dimethylpyridine-3-carboxamide], the IC50 on Human Met and against Human KDR was at most 100 nM in each case.
Take `COCCOc1cc2nccc(Oc3ccc(NC(=O)c4c(O)c(C5=CCOCC5)c(C)[n+](C)c4C)cc3F)c2nc1OC` [Compound 44, 5-(3,6-Dihydro-2H-pyran-4-yl)-N-[3-fluoro-4-[[6-methoxy-7-(2-methoxyethoxy)-1,5-naphthyridin-4-yl]oxy]phenyl]-1,2,6-trimethyl-4-oxopyridine-3-carboxamide]: the IC50 at Human Met was at most 100 nM; against Human KDR it was 100 to 300 nM.
For `COCCOc1cc2nccc(Oc3ccc(NC(=O)c4c(C)n(C)c(C)c(/C=C/C(C)(C)C)c4=O)cc3F)c2nc1OC` [Compound 45, 5-[(E)-3,3-Dimethylbut-1-enyl]-N-[3-fluoro-4-[[6-methoxy-7-(2-methoxyethoxy)-1,5-naphthyridin-4-yl]oxy]phenyl]-1,2,6-trimethyl-4-oxopyridine-3-carboxamide] the same measures were at most 100 nM and at most 100 nM.
For `COc1cc2nccc(Oc3ccc(NC(=O)c4c(C)n(C)c(C)c(C5CC5)c4=O)cc3F)c2nc1OC` [Compound 46, 5-Cyclopropyl-N-[4-[(6,7-dimethoxy-1,5-naphthyridin-4-yl)oxy]-3-fluorophenyl]-1,2,6-trimethyl-4-oxopyridine-3-carboxamide] the same measures were over 300 nM and over 300 nM.
The corresponding values for `COc1cc2nccc(Oc3cc(F)c(NC(=O)c4c(C)n(C)c(C)c(C5CC5)c4=O)cc3F)c2nc1OC` [Compound 47, 5-Cyclopropyl-N-[4-[(6,7-dimethoxy-1,5-naphthyridin-4-yl)oxy]-2,5-difluorophenyl]-1,2,6-trimethyl-4-oxopyridine-3-carboxamide] are over 300 nM and over 300 nM.
Take `COc1cc2nccc(Oc3ccc(NC(=O)c4c(C)n(C)c(C)c(C5CC5)c4=O)cc3)c2nc1OC` [Compound 48, 5-Cyclopropyl-N-[4-[(6,7-dimethoxy-1,5-naphthyridin-4-yl)oxy]phenyl]-1,2,6-trimethyl-4-oxopyridine-3-carboxamide]: the IC50 at Human Met and at Human KDR was over 300 nM in each case.
Regarding `COc1cc2nccc(Oc3ccc(NC(=O)c4c(C)n(C)c(C)c(/C=C/C(C)(C)C)c4=O)cc3F)c2nc1OC` [Compound 49, N-[4-[(6,7-Dimethoxy-1,5-naphthyridin-4-yl)oxy]-3-fluorophenyl]-5-[(E)-3,3-dimethylbut-1-enyl]-1,2,6-trimethyl-4-oxopyridine-3-carboxamide], the IC50 on Human Met was over 300 nM; on Human KDR, at most 100 nM.
For `COc1cc2nccc(Oc3ccc(NC(=O)c4c(C)n(C)c(C)c(/C=C/C5CC5)c4=O)cc3F)c2nc1OC` [Compound 50, 5-[(E)-2-Cyclopropylethenyl]-N-[4-[(6,7-dimethoxy-1,5-naphthyridin-4-yl)oxy]-3-fluorophenyl]-1,2,6-trimethyl-4-oxopyridine-3-carboxamide] the same measures were over 300 nM and over 300 nM.
Take `COCCOc1cc2nccc(Oc3ccc(NC(=O)c4c(C)n(C)c(C)c(/C=C/C5CC5)c4=O)cc3F)c2nc1OC` [Compound 51, 5-[(E)-2-Cyclopropylethenyl]-N-[3-fluoro-4-[[6-methoxy-7-(2-methoxyethoxy)-1,5-naphthyridin-4-yl]oxy]phenyl]-1,2,6-trimethyl-4-oxopyridine-3-carboxamide]: the IC50 on Human Met is at most 100 nM; at Human KDR, over 300 nM.
The corresponding values for `COc1cc2nccc(Oc3ccc(NC(=O)c4c5n(c(C)c(C6=CCOCC6)c4=O)CCOC5)cc3F)c2nc1OC` [Compound 79, 7-(3,6-Dihydro-2H-pyran-4-yl)-N-[4-[(6,7-dimethoxy-1,5-naphthyridin-4-yl)oxy]-3-fluorophenyl]-6-methyl-8-oxo-3,4-dihydro-1H-pyrido[2,1-c][1,4]oxazine-9-carboxamide] are at most 100 nM and over 300 nM.
For `COc1cc2nccc(Oc3ccc(NC(=O)c4c5n(c(C)c(C6=CCCCC6)c4=O)CCOC5)cc3F)c2nc1OC` [Compound 80, 7-(Cyclohexen-1-yl)-N-[4-[(6,7-dimethoxy-1,5-naphthyridin-4-yl)oxy]-3-fluorophenyl]-6-methyl-8-oxo-3,4-dihydro-1H-pyrido[2,1-c][1,4]oxazine-9-carboxamide] the same measures were at most 100 nM and at most 100 nM.
For `COc1cnc2c(Oc3ccc(NC(=O)c4c(C)n(C)c(C)c(C#N)c4=O)cc3F)ccnc2c1` [Compound 81, 5-Cyano-N-[3-fluoro-4-[(7-methoxy-1,5-naphthyridin-4-yl)oxy]phenyl]-1,2,6-trimethyl-4-oxopyridine-3-carboxamide] the same measures were over 300 nM and over 300 nM.
`COc1cc2nccc(Oc3ccc(NC(=O)c4c(C)n(C)c(C)c(C#N)c4=O)cc3)c2nc1OC` [Compound 82, 5-Cyano-N-[4-[(6,7-dimethoxy-1,5-naphthyridin-4-yl)oxy]phenyl]-1,2,6-trimethyl-4-oxopyridine-3-carboxamide]: the IC50 at Human Met and against Human KDR was over 300 nM each time.
For `COCCOc1cc2nccc(Oc3cc(F)c(NC(=O)c4c(C)n(C)c(C)c(C#N)c4=O)cc3F)c2nc1OC` [Compound 83, 5-Cyano-N-[2,5-difluoro-4-[[6-methoxy-7-(2-methoxyethoxy)-1,5-naphthyridin-4-yl]oxy]phenyl]-1,2,6-trimethyl-4-oxopyridine-3-carboxamide], the 50% inhibitory concentration (IC50) on Human Met and on Human KDR was over 300 nM throughout.
For the molecule `COc1cc2nccc(Oc3ccc(NC(=O)c4c(C)nc(C)c(C(N)=O)c4O)cc3F)c2nc1OC` [Compound 84, 3-N-[4-[(6,7-Dimethoxy-1,5-naphthyridin-4-yl)oxy]-3-fluorophenyl]-4-hydroxy-2,6-dimethylpyridine-3,5-dicarboxamide], the IC50 on Human Met and on Human KDR was over 300 nM throughout.
With `COc1cc2nccc(Oc3ccc(NC(=O)c4c(C)nc(C)c(C(N)=O)c4O)cc3)c2nc1OC` [Compound 85, 3-N-[4-[(6,7-Dimethoxy-1,5-naphthyridin-4-yl)oxy]phenyl]-4-hydroxy-2,6-dimethylpyridine-3,5-dicarboxamide], the IC50 at Human Met and against Human KDR was over 300 nM each time.
For the molecule `COCCOc1cc2nccc(Oc3cc(F)c(NC(=O)c4c(C)nc(C)c(C(N)=O)c4O)cc3F)c2nc1OC` [Compound 86, 3-N-[2,5-Difluoro-4-[[6-methoxy-7-(2-methoxyethoxy)-1,5-naphthyridin-4-yl]oxy]phenyl]-4-hydroxy-2,6-dimethylpyridine-3,5-dicarboxamide], the IC50 on Human Met and at Human KDR was over 300 nM in each case.
As to `COc1cc2nccc(Oc3ccc(NC(=O)c4c(C)nc(C)c(C#N)c4O)cc3F)c2nc1OC` [Compound 87, 5-Cyano-N-[4-[(6,7-dimethoxy-1,5-naphthyridin-4-yl)oxy]-3-fluorophenyl]-4-hydroxy-2,6-dimethylpyridine-3-carboxamide], the IC50 at Human Met was over 300 nM; against Human KDR, 100 to 300 nM.
For `COc1cc2nccc(Oc3ccc(NC(=O)c4c(C)n(C)c(C)c(N5CCOCC5)c4=O)cc3F)c2nc1OC` [Compound 88, N-[4-[(6,7-Dimethoxy-1,5-naphthyridin-4-yl)oxy]-3-fluorophenyl]-1,2,6-trimethyl-5-morpholin-4-yl-4-oxopyridine-3-carboxamide] the same measures were over 300 nM and over 300 nM.
